Results: the supplement of paper PMC10307832

Columns and labels:
Test in all cases: relative viability (nuclei count vs DMSO), 5 days (fraction); higher = more cells survive
NCI-H1975 = system: NCI-H1975
How it was run: (§1)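 Lung cancer cell lines were seeded in 1536-well plates and dosed by pin tool the next day, with either a single drug or a fixed anchor-drug dose combined with five library-drug doses (not always all listed) spaced in √10 steps. Five days later, one step fixed the cells and stained their nuclei (final 0.05% Triton X-100, 1% formaldehyde, 1 ug/ml Hoechst), and nuclei were counted on 4× images. Relative viability is the nuclei count in treated wells divided by the count in vehicle wells, and each value is the median of duplicate plates.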

NCI-H1755 = system: NCI-H1755
How it was run: as §1

NCI-H2170 = system: NCI-H2170
How it was run: as §1

LK-2 = system: LK-2
How it was run: as §1

NCI-H596 = system: NCI-H596
How it was run: as §1

NCI-H1666 = system: NCI-H1666
How it was run: as §1

HCC-366 = system: HCC-366
How it was run: as §1

EKVX = system: EKVX
How it was run: as §1

NCI-H520 = system: NCI-H520
How it was run: as §1

NCI-H1563 = system: NCI-H1563
How it was run: as §1

SW 900 = system: SW 900
How it was run: as §1

O=c1cc(N2CCOCC2)oc2c(-c3cccc4c3sc3ccccc34)cccc12 + COc1cc2c(Oc3ccc(NC(=O)C4(C(=O)Nc5ccc(F)cc5)CC4)cc3F)ccnc2cc1OCCCN1CCOCC1 [Foretinib] (partner 0.25 µM)
relative viability (NCI-H1975; first compound 0.01 µM): 0.842 | relative viability (NCI-H1975; first compound 0.03162 µM): 1.1 | relative viability (NCI-H1975; first compound 0.1 µM): 1.1 | relative viability (NCI-H1975; first compound 0.3162 µM): 0.927 | relative viability (NCI-H1975; first compound 1 µM): 0.936 | relative viability (NCI-H1755; first compound 0.01 µM): 0.899 | relative viability (NCI-H1755; first compound 0.03162 µM): 0.952 | relative viability (NCI-H1755; first compound 0.1 µM): 0.959 | relative viability (NCI-H1755; first compound 0.3162 µM): 0.926 | relative viability (NCI-H1755; first compound 1 µM): 0.934 | relative viability (NCI-H2170; first compound 0.01 µM): 0.968 | relative viability (NCI-H2170; first compound 0.03162 µM): 0.542 | relative viability (NCI-H2170; first compound 0.1 µM): 1.03 | relative viability (NCI-H2170; first compound 0.3162 µM): 0.935 | relative viability (NCI-H2170; first compound 1 µM): 0.942 | relative viability (LK-2; first compound 0.01 µM): 1.17 | relative viability (LK-2; first compound 0.03162 µM): 1.16 | relative viability (LK-2; first compound 0.1 µM): 1.53 | relative viability (LK-2; first compound 0.3162 µM): 0.958 | relative viability (LK-2; first compound 1 µM): 0.951 | relative viability (NCI-H596; first compound 0.01 µM): 0.838 | relative viability (NCI-H596; first compound 0.03162 µM): 0.946 | relative viability (NCI-H596; first compound 0.1 µM): 0.821 | relative viability (NCI-H596; first compound 0.3162 µM): 0.96 | relative viability (NCI-H596; first compound 1 µM): 0.918 | relative viability (NCI-H1666; first compound 0.01 µM): 0.907 | relative viability (NCI-H1666; first compound 0.03162 µM): 0.917 | relative viability (NCI-H1666; first compound 0.1 µM): 0.983 | relative viability (NCI-H1666; first compound 0.3162 µM): 0.883 | relative viability (NCI-H1666; first compound 1 µM): 0.913 | relative viability (HCC-366; first compound 0.01 µM): 0.941 | relative viability (HCC-366; first compound 0.03162 µM): 0.918 | relative viability (HCC-366; first compound 0.1 µM): 0.99 | relative viability (HCC-366; first compound 0.3162 µM): 0.961 | relative viability (HCC-366; first compound 1 µM): 0.853 | relative viability (EKVX; first compound 0.01 µM): 0.973 | relative viability (EKVX; first compound 0.03162 µM): 1.05 | relative viability (EKVX; first compound 0.1 µM): 0.818 | relative viability (EKVX; first compound 0.3162 µM): 0.628 | relative viability (EKVX; first compound 1 µM): 0.59 | relative viability (NCI-H520; first compound 0.01 µM): 0.896 | relative viability (NCI-H520; first compound 0.03162 µM): 0.86 | relative viability (NCI-H520; first compound 0.1 µM): 0.725 | relative viability (NCI-H520; first compound 0.3162 µM): 0.774 | relative viability (NCI-H520; first compound 1 µM): 0.734 | relative viability (NCI-H1563; first compound 0.01 µM): 0.913 | relative viability (NCI-H1563; first compound 0.03162 µM): 0.833 | relative viability (NCI-H1563; first compound 0.1 µM): 0.895 | relative viability (NCI-H1563; first compound 0.3162 µM): 0.901 | relative viability (NCI-H1563; first compound 1 µM): 0.888 | relative viability (SW 900; first compound 0.01 µM): 0.859 | relative viability (SW 900; first compound 0.03162 µM): 0.888 | relative viability (SW 900; first compound 0.1 µM): 0.789 | relative viability (SW 900; first compound 0.3162 µM): 0.798 | relative viability (SW 900; first compound 1 µM): 0.818
